#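 Each compound was tested at five concentrations against cells in 96-well plates for 48 hours. Abbreviation: GI50, concentration required for 50% inhibition of growth. Definition used: TGI = concentration required for complete inhibition of growth.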 Where a SMILES comes first, the peptide text is derived from it. [ ]: non-standard residue; d: D form. ξ: configuration not given here. ξLac(3-iPr) = CC(C)CC(O)C(=O)O; NMeV = CN[CH](C(=O)O)C(C)C; NMeA = CN[CH](C)C(=O)O; βAla = NCCC(=O)O
# What was measured:
# Assay in all cases: growth of human tumour cells (NCI), 48 h
# MALME-3M melanoma = test system: MALME-3M melanoma
# MCF7 breast = test system: MCF7 breast
# NCI-H23 lung = test system: NCI-H23 lung
# SR leukemia = test system: SR leukemia
# T-47D breast = test system: T-47D breast
# SK-MEL-2 melanoma = test system: SK-MEL-2 melanoma
# TK-10 renal = test system: TK-10 renal
# MDA-MB-435 = test system: MDA-MB-435
# SK-OV-3 ovarian = test system: SK-OV-3 ovarian
# HCC-2998 colon = test system: HCC-2998 colon
# SW-620 colon = test system: SW-620 colon
# CAKI-1 renal = test system: CAKI-1 renal
# HL-60(TB) leukemia = test system: HL-60(TB) leukemia
# UACC-257 melanoma = test system: UACC-257 melanoma
SMILES,TGI (MALME-3M melanoma) [µM],TGI (MCF7 breast) [µM],TGI (NCI-H23 lung) [µM],TGI (SR leukemia) [µM],TGI (T-47D breast) [µM],TGI (SK-MEL-2 melanoma) [µM],TGI (TK-10 renal) [µM],TGI (MDA-MB-435) [µM],TGI (SK-OV-3 ovarian) [µM],TGI (HCC-2998 colon) [µM],TGI (SW-620 colon) [µM],TGI (CAKI-1 renal) [µM],TGI (HL-60(TB) leukemia) [µM],TGI (UACC-257 melanoma) [µM],GI50 (MCF7 breast) [µM],GI50 (NCI-H23 lung) [µM],GI50 (SR leukemia) [µM],GI50 (SK-MEL-2 melanoma) [µM],GI50 (TK-10 renal) [µM],GI50 (SK-OV-3 ovarian) [µM]
O=C1/C(=C/c2ccc(Oc3ccccc3)cc2)N=C(c2ccccc2)N1c1ccc(S(=O)(=O)Nc2nccs2)cc1,86.6,38,> 100,25,77.1,16.1,> 100,6.86,> 100,6.87,> 100,> 100,34.9,92.5,–,–,–,–,–,–
CCN(CC)c1ccc2nc3ccc(N=Nc4c(O)ccc5ccccc45)cc3[n+](-c3ccccc3)c2c1,> 100,–,> 100,> 100,> 100,> 100,> 100,> 100,> 100,–,> 100,> 100,> 100,> 100,–,–,–,–,–,–
Cc1ccc(C2COc3cc(O)c(O)cc3C2)cc1 (configuration not stated),48.9,114,65.6,–,–,57.3,–,–,275,172,34.5,38.1,8.27,69.6,–,–,–,–,–,–
N#CC(C#N)N=Nc1ccc(-c2nc3ccccc3o2)cc1,> 100,36.2,29.9,42.6,25.2,31.4,38.2,52.9,43.7,14.7,28.1,–,40.2,17.8,–,–,–,–,–,–
C[C@]12CC[C@@H]3c4ccc(O)cc4CC[C@H]3[C@@H]1CC[C@@H]2OC(=O)CCc1ccccc1,34.8,37.7,34.6,–,37,30.8,33.9,45.1,38.1,36.6,64.7,37.7,43.9,35.2,–,–,–,–,–,–
O=C1C=CC(=O)c2c(O)c(Br)c(Br)c(O)c21,2.54,5.48,13.3,0.289,6.04,46.6,6.12,8.19,35.5,35.2,3.44,–,2.21,8.25,–,–,–,–,–,–
O=C(O)CCC(N=NNc1ccc(-c2nc3ccccc3[nH]2)cc1)C(=O)O (configuration not stated),–,> 100,> 100,> 100,> 100,> 100,> 100,> 100,> 100,–,> 100,> 100,> 100,> 100,–,–,–,–,–,–
CCC(C)C1NC(=O)C2CCCN2C(=O)C(CC(C)C)OC(=O)CCNC(=O)C(C)N(C)C(=O)C(C(C)C)N(C)C1=O (configuration not stated) (cyclo([ξLac(3-iPr)]PI[NMeV][NMeA][βAla]); configuration not given here),45.2,> 26.7,> 71.6,> 56.5,38.9,8.81,> 100,13.5,> 86.8,14.9,> 100,> 86.2,18.2,41.8,–,–,–,–,–,–
COc1cc(C(=O)CC2OC(=O)C(Cl)=C2Cl)ccc1Cl (configuration not stated),> 100,–,> 100,> 100,–,> 100,> 100,–,> 100,> 100,> 100,> 100,> 100,> 100,–,–,–,–,–,–
CO/N=C\c1cc(O)c(O)c(/C=N/OC)c1,> 100,94.8,99.4,> 100,> 100,> 100,> 100,> 100,> 100,> 100,> 100,> 100,99.3,> 100,–,–,–,–,–,–
O=C(c1ccccc1)c1nc2ccc(Cl)cc2c2c1CCCO2,> 100,–,> 100,> 100,–,> 100,> 100,–,–,> 100,> 100,> 100,–,–,–,–,–,–,–,–
N#C/C(=C\c1ccc(Br)cc1)n1nnc2cc(Cl)c(Cl)cc21,–,> 100,> 100,> 100,–,4.86,6.71,–,> 100,–,–,–,–,–,1.51,2.89,1.36,2.08,3.32,4.33
O=C(N/N=C/c1ccc([N+](=O)[O-])cc1)Nc1ccc(Br)cc1,> 100,> 100,> 100,> 100,> 100,> 100,> 100,> 100,> 100,90.9,> 100,> 100,> 100,> 100,–,–,–,–,–,–
Clc1ccc(C[P+]2(c3ccccc3)CCCCC2)cc1,> 100,–,> 100,> 100,–,> 100,> 100,–,> 100,> 100,> 100,–,93.9,89.5,–,–,–,–,–,–
CC(NC(=O)c1ccc(NP(=O)(OCc2ccc([N+](=O)[O-])o2)N(C)CCCCCl)cc1)c1ccc(OCC2CCCCC2)c(C(N)=O)c1 (configuration not stated),–,18.3,34.8,40.7,25.5,49.3,80.7,33.6,78.3,24.2,86.8,> 100,50,26.6,–,–,–,–,–,–
O=C1c2ccccc2C(=O)c2c(Nc3cc4c5c(ccc6c7ccc8c9c(cc(Nc%10cccc%11c%10C(=O)c%10ccccc%10C%11=O)c(c3c56)c97)-c3ccccc3C8=O)C(=O)c3ccccc3-4)cccc21,> 100,> 100,> 100,> 100,> 100,> 100,96.1,> 100,51.1,–,> 100,> 100,–,> 100,–,–,–,–,–,–
O=C(c1ccccc1)C1C(c2ccccc2)N1S(=O)(=O)c1ccccc1 (configuration not stated),> 100,> 100,> 100,–,> 100,> 100,> 100,> 100,> 100,> 100,> 100,> 100,–,–,–,–,–,–,–,–
OCc1cc2ccncc2c2c1[nH]c1ccccc12,24.6,–,48.2,20,–,67.5,67.7,–,–,22.1,19.7,17.9,24.9,51.3,–,–,–,–,–,–
Cc1nc2[nH]ncn2c(=O)c1CCCl,> 10,> 10,> 10,> 10,> 10,> 10,> 10,> 10,> 10,> 10,> 10,> 10,> 10,–,–,–,–,–,–,–
CC(=O)n1cc(OP(=O)(Oc2ccccc2)Oc2ccccc2)c2ccccc21,> 100,31.5,> 100,72.4,80.2,77,> 100,50.3,–,–,> 100,54.3,50.3,77.2,–,–,–,–,–,–
Clc1ccc(OCc2nnc3sc(-c4ccc(-c5ccc(Cl)cc5Cl)o4)nn23)cc1,> 100,–,> 100,> 100,> 100,> 100,> 100,> 100,> 100,–,> 100,> 100,> 100,> 100,–,–,–,–,–,–
CN=C(N)c1ccc(N=C(N)c2ccc(C(N)=Nc3ccc(C(N)=NC)cc3)cc2)cc1,> 100,–,–,–,–,> 100,> 100,–,> 100,–,> 100,> 100,> 100,> 100,–,–,–,–,–,–
Cc1ccc2c(ccc(/C=C\c3cc(C)c4cccnc4c3O)[n+]2C)c1,25.1,–,53.4,25.4,–,–,–,–,–,11.6,30.1,25.5,19.7,28.4,–,–,–,–,–,–
CC1(C)N=C(N)N=C(N)N1c1cccc(C(=O)Nc2ccc(S(=O)(=O)F)cc2)c1,> 100,> 100,> 100,–,> 100,> 100,> 100,> 100,> 100,–,> 100,> 100,> 100,> 100,–,–,–,–,–,–
Oc1c(Br)cc(/C=C/c2cccc(/C=C/c3cc(Br)c(O)c(Br)c3)n2)cc1Br,–,42.5,–,18.9,31.4,20.1,56.3,46.5,62.9,18.8,50.6,45.6,–,37.2,–,–,–,–,–,–
